Source: article PMC12648313, “Enhancing the Efficacy, Utility, and Throughput of the Transcription Block Survival Peptide Library Screening Platform” (JACS Au, 2025)

What was measured:
ATF2 bZIP-CRE DNA = test: TBS peptide library screening, competition selection; assay type: cell-based, human ATF2 bZIP, in E. coli BL21-Gold; details: 11.3-million-member library; nine rounds of selection; 9xCRE mDHFR; selective M9, 37 °C
From the text: This validates the new TBS design for the introduction of a transcriptional block and for the ability of antagonist peptides to restore bacterial growth in the CRE/CREB systems. We next constructed an 11.3-million-member peptide library to identify antagonists of ATF2, representing the first such effort to target this TF. This library design includes an N-terminal acidic domain, developed by Vinson and coworkers to engage bZIP DNA-binding domains (DBDs), followed by a semirandomized LZ region. Canonical coiled coil heptad repeat e and g positions were semirandomized to include glu, gln or lys options, with two exceptions to increase library diversity: e7 (ile, asn, asp or val) and g8 (leu, gln, glu or val). The a positions were randomized to select from leu, ile or val, to optimize hydrophobic packing in the coiled coil core, except a6 which also included asn or asp to investigate potential core polar interactions. The d positions were fixed as leu to promote formation of a desired parallel, dimeric coiled coil. […]
colonies: E = […] where E is the percentage of the library missing, m is the number of colonies collected and n is the library size. Library DNA quality was assessed by sequencing both the DNA pool and a number of single colonies to show degenerate codons in the correct positions in the pool and to show a diversity of library members from single […]

[1] = ATF2W alone; 222 nm, 1 to 95 °C, pH 7.4, 10 mM TCEP.HCl; two-state model
Method: (DMF). Deprotection was performed by addition of 0.75 mL 30% pyrrolidine into the coupling reaction. Peptides were acetylated at the N-terminus by a final reaction with 3x acetic anhydride, 4.5x diisopropylethylamine in DMF for one hour at room temperature. Incubation in a cleavage mixture (95% TFA, 2.5% triisopropylsilane, 2.5% H2O, 10 mL) for 4 h at room temperature cleaved the peptide from the resin and removed side chain protecting groups.
2.5% DODT was added to the cleavage cocktail for ATF2. The resin was removed by filtration and cleaved peptides were precipitated in diethyl ether at -80°C and centrifuged.
This pellet was washed a further four times with diethyl ether before it was dried overnight at room temperature. Peptides were resuspended in 1:1 water:acetonitrile (0.1% TFA) before purification using RP-HPLC with a Jupiter Proteo column (4-μm particle size, 90 Å pore size, 250 × 10 mm; Phenomenex) using a water:acetonitrile gradient (0.1% TFA). Peptide masses and purity (>95%) were verified by electrospray ionisation mass spectrometry. Upon solubilising in buffer, peptides were centrifuged to ensure insoluble/aggregated material was removed before peptide concentration determination.
Circular Dichroism: An Applied Photophysics Chirascan was used for CD measurements, with a 200 µL sample in a 1 mm path length CD cell. […]

DLX5/H-Box complex = test: FP antagonism assay DLX5/H-Box; assay type: biochemical; details: FAM-H-Box DNA, over the concentration range tested

Ac-LEQQLEELAQENEELEKEAAELQQQIARLKNEVAKLENENKTLDREIKALQREYSHKSD-NH2 [ATF2W]
outcome of TBS selection (ATF2 bZIP-CRE DNA): single dominant hit | Tm [1]: 37 °C | antagonism of DLX5/H-Box interaction (DLX5/H-Box complex): minimal antagonism
